Measurements from patent US20150111896A1, “HEMATOPOIETIC PROTECTION AGAINST CHEMOTHERAPEUTIC COMPOUNDS USING SELECTIVE CYCLIN-DEPENDENT KINASE 4/6 INHIBITORS” (The University of North Carolina at Chapel Hill, priority 2008, published 2015).
“Also recorded” adds a separate entry of the source.

Assays:
[1] = test system: human RB-null melanoma cells (A2058); assay: Cell cycle analysis (BrdU and propidium iodide, flow cytometry); format: cell-based; conditions: A2058 (RB-null, CDK4/6-independent), 24 hours treatment
Protocol: (§1) Cells were cultured in DMEM+10% FBS.
(§2) Cell cycle analysis: Cell cycle analysis was performed using BrdU and propidium iodide (both from BD Biosciences Pharmigen, San Jose, Calif., United States of America) following the manufacturer's protocol. Cells were treated for 24 hours with a test compound at a desired dose prior to 15 minutes BrdU pulse, cell harvesting, fixation, staining, and analysis by flow cytometry.
(§3) Histograms of dose-response curves of PD332991 and 2BrIC in HS68, WM2664 and A2058 cells were analyzed using Mod-Fit™ software from Verity Software House (Topsham, Me., United States of America).

[2] = test system: human melanoma cells lacking INK4a/ARF (WM2664); assay: as above; format: cell-based; conditions: WM2664 (CDK4/6-dependent), 24 hours treatment
Protocol: as §1, §2, §3

[3] = test system: telomerized human diploid fibroblast (tHDF) cells (HS68); assay: as above; format: cell-based; conditions: HS68 (CDK4/6-dependent), 24 hours treatment
Protocol: as §1, §2, §3

[4] = test system: human melanoma cells lacking INK4a/ARF (WM2664); assay: Cell proliferation assay (WST-1 or CellTiter-Glo) after chemotherapeutic; conditions: for protection from chemotherapy-induced cytotoxicity (cell proliferation assays): WM2664 (CDK4/6-dependent), pretreatment prior to carboplatin, etoposide or doxorubicin; for protection from doxorubicin-induced cytotoxicity (cell viability, WST-1 assay) / chemoprotective effects against doxorubicin (cell viability, CellTiter-Glo): WM2664; for protection from doxorubicin-induced cytotoxicity (cell viability, WST-1 assay): absorbance at 450 nm, 7 days recovery; for chemoprotective effects against doxorubicin (cell viability, CellTiter-Glo): 16 hours pretreatment, DOX 122 nM 8 hours, viability after 7 days
Protocol: (§6) In some embodiments, cell viability is assessed by performing a assay using 2-(4-iodophenyl)-3-(4-nitrophenyl)-5-(2,4-disulfophenyl)-2H-tetrazolium monosodium salt (WST-1), such as described further hereinbelow. In the WST-1 assay, WST-1 is cleaved by a mitochondrial reductase present in viable cells to form a colored product (i.e., formazan) that can be detected by measuring absorbance at a particular wavelength (e.g., 420-480 nm). […] The CellTiter-Glo® assay (CTG assay; Promega, Madison, Wis., United States of America) measures cell viability by measuring ATP concentration in cell lysate.
(§7) Cell lines: Telomerized human diploid fibroblast (tHDF) cells (HS68) were cultured in Dulbecco's Modified Eagle Medium (DMEM) +10% fetal bovine serum (FBS) with any additional compounds. The same conditions were used for A2058 and WM2664, human melanoma cell lines with known RB-pathway mutations: A2058 is RB-null, whereas WM2664 lacks INK4a/ARF. Thus, A2058 cells are CDK4/6-independent, while WM2664 cells are CDK4/6-dependent. Cells were cultured in DMEM+10% FBS.
(§8) Cell proliferation assays: Cell proliferation assays were performed by seeding 1×10^3 cells per well in a 96-well tissue culture plate in 100 μL of growth medium. Cells were treated as indicated with compound from Table 1 and doxorubicin, etoposide or carboplatin. Following treatment, cells were allowed to recover for 7 days in normal growth medium. At the end of the recovery period, cell number was quantified using the VVST-1 cell proliferation assay (TaKaRa Bio USA, Madison, Wis., United States of America) or the CellTiter-Glo® assay (CTG; Promega, Madison, Wis., United States of America). Data is presented as absorbance at 450 nm for the WST assays or Relative Light Units (RLU) for the CTG assays.

[5] = test system: telomerized human diploid fibroblast (tHDF) cells (HS68); assay: as above; conditions: for protection from chemotherapy-induced cytotoxicity (cell proliferation assays): HS68 (CDK4/6-dependent), pretreatment prior to carboplatin, etoposide or doxorubicin; for protection from doxorubicin-induced cytotoxicity (cell viability, WST-1 assay) / chemoprotective effects against doxorubicin (cell viability, CellTiter-Glo): HS68; for protection from doxorubicin-induced cytotoxicity (cell viability, WST-1 assay): absorbance at 450 nm, 7 days recovery; for chemoprotective effects against doxorubicin (cell viability, CellTiter-Glo): 16 hours pretreatment, DOX 370 nM 8 hours, viability after 7 days
Protocol: as §6, §7, §8

[6] = test system: human RB-null melanoma cells (A2058); assay: γH2AX assay (DNA damage, flow cytometry); format: cell-based; conditions: 16 hours pretreatment, then 8 hours Carbo, Etop or Dox
Source text: (§4) Reduction in DNA damage effected by the test compound or maintenance of cell viability effected by the test compound in cells treated with cytotoxic compounds can be assessed in any suitable manner. For example, DNA damage in cell populations can be assessed by performing a gamma-H2AX assay as described further herein below. Mammalian cells respond to agents that introduce DNA double-stranded breaks with the immediate and substantial phosphorylation of histone H2AX. Thus, detection of the phosphorylated H2AX, termed gamma-H2AX (γH2AX), using commercially available antibodies, can serve as a measure of DNA damage in cells.
as §1
(§5) γH2AX assay: For γH2AX assay, cells were treated with a dose response of PD332991 or 2BrIC for 24 hours. Cells were fixed, permeabilized, and stained with anti-γH2AX antibody as per γH2AX Flow Kit (Millipore, Billerica, Mass., United States of America). γH2AX levels were assessed by flow cytometry.

[7] = test system: human melanoma cells lacking INK4a/ARF (WM2664); assay: γH2AX assay (DNA damage, flow cytometry); format: cell-based; conditions: 16 hours pretreatment
Source text: as §4, §1, §5

[8] = test system: telomerized human diploid fibroblast (tHDF) cells (HS68); assay: γH2AX assay (DNA damage, flow cytometry); format: cell-based; conditions: 16 hours pretreatment, then 8 hours Carbo, Etop or Dox
Source text: as §4, §1, §5

[9] = test system: hematopoietic stem and progenitor cells (HSPC); assay: In vivo pharmacodynamic assay (BrdU incorporation, Ki67) in bone marrow; parameters: species or system mice; conditions: two doses 300 mg/kg oral gavage, 2 hours prior to and at BrdU injection; relative to formulation alone; 300 mg/kg
Protocol: PD0332991: For HSPC proliferation experiments, mice received daily oral gavage with PD0332991 150 mg/kg for 2 days with 1 mg BrdU intraperitoneal injection (i.p.) every 6 hours for 24 hours prior to sacrifice.
2BrIC: For HSPC proliferation experiments, mice were treated with two doses of 2-bromo-12,13-dihydro-5H-indolo[2,3-a]pyrrolo[3,4-c]carbazole-5,7(6H)-dione (2BrIC) 300 mg/kg oral gavage or vehicle control. 2BrIC was solubilized for oral gavage using formulation #6 from the Hot Rod formulation kit (Pharmatek, Inc., San Diego, Calif., United States of America). 2BrIC was administered 2 hours prior to BrdU administration and readministered at the time of the BrdU 1 mg i.p. injection. After BrdU+/−2BrIC treatment for the indicated times, the mice were sacrificed and bone marrow harvested for immunophenotyping, and BrdU analysis.
Bone marrow (BM) was harvested from femurs of mice, pooled, and centrifuged to purify bone marrow mononuclear cells (BM-MNCs). Cells were then incubated for 5 minutes in ACK buffer to lyse red blood cells. All antibodies were from BD Pharmingen (San Jose, Calif., United States of America) unless otherwise indicated. Purified BM-MNCs were incubated with mouse lineage mixture biotin conjugated antibody, followed by streptavidin-FITC. Cells were then stained with Sca-1-PE-Cy7 and c-kit-APC-alexa750 antibodies. Cell viability was assessed using LIVE/DEAD Aqua Dead Cell Stain Kit (Invitrogen Corporation, Carlsbad, Calif., United States of America). For BrdU incorporation assay, the cells were fixed, permeablized, and stained with an APC BrdU Flow Kit according to the manufacturer's instruction. In all experiments, PE-Cy7, FITC, APC-alexa750, and the Aqua Dead cell stain isotype controls were included as appropriate. Flow cytometric analysis was performed using a CyAn ADP (Dako, Glostrup, Denmark). For each sample, a minimum of 500,000 cells was analyzed and the data were analyzed using FlowJo software (Tree Star, Ashland, Oreg., United States of America).

[10] = test system: mice exposed to chemotherapeutic agents; assay: Myelosuppression assay: weekly complete blood counts; format: in vivo; conditions: 150 mg/kg oral gavage, Carbo 100 mg/kg i.p., blood on sixth day
Protocol: PD0332991: In the carboplatin experiments, mice were treated with a single dose of PD0332991 150 mg/kg oral gavage or vehicle control followed by carboplatin 100 mg/kg IP injection. In the doxorubicin experiments, mice were treated with a PD0332991 150 mg/kg by oral gavage or vehicle control one hour before doxorubicin 10 mg/kg by IP injection on day 0 and then repeated on day 7.
2BrIC: Mice were treated with a single dose of carboplatin 100 mg/kg by IP injection and two doses of 2BrIC 150mg/kg oral gavage or vehicle control. Mice were pretreated with 2BrIC two hours prior to carboplatin administration and then readministered a second dose of 2BrIC at the time of the carboplatin injection.
Baseline complete blood count (CBC) analysis were performed on a subset of mice prior to drug administration. Following drug administration (chemotherapy+/−indicated CDK4/6 inhibitor or control), mice were monitored weekly for the presence of myelosuppression by CBC analysis. CBC analysis was performed using BD Microtainer tubes with K2E (K2EDTA), 40 μL of blood was collected by tail vein nick. Blood was analyzed using a HESKA CBC-Diff Veterinary Hematology System. CBC analysis included measurement of white blood cells, lymphocytes, granulocytes, monocytes, hematocrit, red blood cells, hemoglobin, platelets, and other common hematological parameters.

[11] = test system: human RB-null melanoma cells (A2058); assay: Cell proliferation assay (WST-1 or CellTiter-Glo) after chemotherapeutic; conditions: for protection from chemotherapy-induced cytotoxicity (cell proliferation assays): A2058 (CDK4/6-independent), pretreatment prior to carboplatin, etoposide or doxorubicin; for chemoprotective effects against doxorubicin (cell viability, CellTiter-Glo): 16 hours pretreatment, DOX 370 nM 8 hours, viability after 7 days
Protocol: as §6, §7, §8

| SMILES | cell cycle effect [1] | cell cycle effect [2] | cell cycle effect [3] | protection from chemotherapy-induced cytotoxicity (cell proliferation assays) [4] | protection from doxorubicin-induced cytotoxicity (cell viability, WST-1 assay) [4] | protection from chemotherapy-induced cytotoxicity (cell proliferation assays) [5] | protection from doxorubicin-induced cytotoxicity (cell viability, WST-1 assay) [5] | protection from doxorubicin-, carboplatin- or etoposide-induced DNA damage (gamma-H2AX) [6] | protection from doxorubicin-, carboplatin- or etoposide-induced DNA damage (gamma-H2AX) ([7]; then 8 hours Carbo, Etop or Dox) | protection from carboplatin-induced DNA damage (gamma-H2AX positive cells) ([7]; then 8 hours carboplatin) | protection from doxorubicin-induced DNA damage (gamma-H2AX positive cells) ([7]; then 8 hours doxorubicin) | protection from etoposide-induced DNA damage (gamma-H2AX positive cells) ([7]; then 8 hours etoposide) | protection from doxorubicin-, carboplatin- or etoposide-induced DNA damage (gamma-H2AX) [8] | incorporation of BrdU into Lin−Kit+Sca1+ cells (MPP) [9] | protection of blood cell counts from carboplatin [10] | protection from chemotherapy-induced cytotoxicity (cell proliferation assays) [11] | protection from doxorubicin-induced cytotoxicity (cell viability, WST-1 assay) ([11]; A2058, absorbance at 450 nm, 7 days recovery) | chemoprotective effects against doxorubicin (cell viability, CellTiter-Glo) [4] | chemoprotective effects against doxorubicin (cell viability, CellTiter-Glo) [5] | chemoprotective effects against doxorubicin (cell viability, CellTiter-Glo) ([11]; A2058) |
| --- | --- | --- | --- | --- | --- | --- | --- | --- | --- | --- | --- | --- | --- | --- | --- | --- | --- | --- | --- | --- |
| CN1CCN(C(=O)c2ccc(Nc3ncc4cnn(C5CCCCC5)c4n3)cc2)CC1 [Compound 11] | did not induce a clean G1 arrest | did not induce a clean G1 arrest | did not induce a clean G1 arrest | failed to protect | inability | failed to protect | inability | – | – | – | – | – | – | – | – | – | – | – | – | – |
| O=C1NC(=O)c2c1c1c3ccccc3[nH]c1c1[nH]c3cc(Br)ccc3c21 [Compound 2BrIC, 2-bromo-12,13-dihydro-5H-indolo[2,3-a]pyrrolo[3,4]-carbazole-5,6-dione] | – | strong, clean and reversible G1-arrest | strong, clean and reversible G1-arrest | significant protection | – | significant protection | – | inability | attenuated γH2AX staining | ability | ability | ability | attenuated γH2AX staining; also recorded: ability | inhibited; also recorded: clearly reducing proliferation | provides protection of red blood cells and hemoglobin | not | inability | – | – | – |
| CN1CCN(c2ccc(Nc3ncc4cnn(C5CCCCC5)c4n3)cc2)CC1 [Compound 8] | did not induce a clean G1 arrest | did not induce a clean G1 arrest | did not induce a clean G1 arrest | failed to protect | inability | failed to protect | inability | – | – | – | – | – | – | – | – | – | – | – | – | – |
| O=c1c(-c2ccc(O)cc2)coc2cc(O)cc(O)c12 [Genistein] | did not induce a clean G1 arrest | did not induce a clean G1 arrest | did not induce a clean G1 arrest | failed to protect | – | failed to protect | – | – | – | – | – | – | – | – | – | failed to protect | – | absence of chemoprotective effects | absence of chemoprotective effects | absence of chemoprotective effects |
| CN1CC[C@H](c2c(O)cc(O)c3c(=O)cc(-c4ccccc4Cl)oc23)[C@H](O)C1 [flavopiridol] | did not induce a clean G1 arrest | did not induce a clean G1 arrest; also recorded: does not induce G1 arrest | did not induce a clean G1 arrest; also recorded: does not induce G1 arrest | failed to protect | – | failed to protect | – | – | – | – | – | – | – | – | – | failed to protect | – | absence of chemoprotective effects | absence of chemoprotective effects | absence of chemoprotective effects |
| COc1ccc(F)c(F)c1C(=O)c1cnc(NC2CCN(S(C)(=O)=O)CC2)nc1N [Compound 7] | did not induce a clean G1 arrest | did not induce a clean G1 arrest; also recorded: does not induce G1 arrest | did not induce a clean G1 arrest; also recorded: does not induce G1 arrest | failed to protect | – | failed to protect | – | – | – | – | – | – | – | – | – | failed to protect | – | absence of chemoprotective effects | absence of chemoprotective effects | absence of chemoprotective effects |
| CN1CCN(Cc2ccc(Nc3ncc4cnn(C5CCCCC5)c4n3)cc2)CC1 [Compound 9] | did not induce a clean G1 arrest | did not induce a clean G1 arrest | did not induce a clean G1 arrest | failed to protect | inability | failed to protect | inability | – | – | – | – | – | – | – | – | – | – | – | – | – |
